Measurements as given in patent publication US4837333A, “Substituted alkylidene imidazoles” (G. D. Searle & Co., priority 1987, dated 1989).

Tests used:
[1] = molecular target: T1, thromboxane synthetase (Homo sapiens, UniProt P24557); experiment: Thromboxane production in Human Platelet Rich Plasma (collagen-stimulated, TxB2 radioimmunoassay); assay type: cell-based; details: 10 min. incubation, collagen 20 μg/ml, 37° C., read-out: ACTIVITY (IC50 × 10^6 M), inhibition of collagen-induced TxB2 generation
T1 construct: The citrated blood was centrifuged at 160 g for 10 mins. at 22° C. to obtain platelet rich plasma (prp); endogenous in cells; host or cells: human platelets in citrated platelet rich plasma from healthy male donors
T1 sequence (P24557 1-533): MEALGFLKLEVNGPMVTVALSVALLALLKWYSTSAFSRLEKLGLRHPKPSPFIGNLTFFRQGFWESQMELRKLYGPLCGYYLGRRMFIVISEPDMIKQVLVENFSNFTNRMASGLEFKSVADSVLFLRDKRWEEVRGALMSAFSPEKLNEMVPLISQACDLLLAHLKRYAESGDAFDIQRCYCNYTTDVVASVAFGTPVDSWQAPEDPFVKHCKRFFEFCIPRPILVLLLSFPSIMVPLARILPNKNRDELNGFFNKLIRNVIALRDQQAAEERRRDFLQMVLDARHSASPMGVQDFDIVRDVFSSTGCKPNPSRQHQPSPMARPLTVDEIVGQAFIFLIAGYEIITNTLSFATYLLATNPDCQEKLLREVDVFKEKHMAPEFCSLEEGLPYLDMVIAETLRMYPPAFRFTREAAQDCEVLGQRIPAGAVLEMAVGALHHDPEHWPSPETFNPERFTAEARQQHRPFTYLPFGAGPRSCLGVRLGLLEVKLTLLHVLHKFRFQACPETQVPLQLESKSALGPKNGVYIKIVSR
Description: (i) inhibition of the generation of thromboxane A2 as determined by radioimmunoassay of its stable metabolite, thromboxane B2 (New England Nuclear, Thromboxane B2 [^3 H] RIA kit, Catalogue No. NEK 007); and
Various compounds of the present invention were evaluated utilizing an in vitro radioimmunoassay as described in the following Example in order to determine inhibition of thromboxane production.
Thromboxane production in Human Platelet Rich Plasma
(a) Platelet rich plasma (prp) preparation
Human venous blood was collected from healthy male donors, who had denied any medication during the previous 14 days. Nine volumes of blood were mixed with one volume of 3.24% trisodium citrate. The citrated blood was centrifuged at 160 g for 10 mins. at 22° C. to obtain platelet rich plasma (prp). The platelets were then counted on a Coulter counter, and the platelet count was adjusted to 200,000 per μl with plasma.
(b) Thromboxane generation
The prp was then dispensed as aliquots into micro-Eppendorf tubes, maintained at 37° C. in a dry bath. The compound to be evaluated was dissolved either in saline, ethanol, or dimethylsulphoxide, and added in duplicate to the prp aliquots to produce a final concentration in the range of 0.1-30 μg/ml. When ethanol or dimethylsulphoxide was used to dissolve the compound, triplicate controls containing the same percentage of ethanol or dimethyl sulphoxide as the test compound was made. The final concentration of organic solvent was never greater than 0.1%, which has been determined to have no effect on TxB2 generation.
Following a 10 min. incubation withtest compounds or controls, collagen was added to the tubes containing the test compounds to produce a final concentration of 20 μg/ml. The tubes were then whirly-mixed for 15 seconds and replaced in the dry bath for a further 10 minutes. Saline was added to the tubes containing the controls, in lieu of collagen. The reaction was then stopped by rapid centrifugation (15000 g for 3 mins). The plasma was removed and frozen at -29° C. until assayed.
(c) Assay of Thromboxane B2
Aliquots (100 μl) of thromboxane TxB2 (plasma extract or standards 50 to 10,000 pg/ml), [^3 H]-TxB2 (approximately 15,000 dpm) and anti-TxB2 antiserum (0.5 μg/100 μl) were combined in […] phosphate buffer+0.1% gelatin+thimerosal (pH 6.8) were incubated for 16 hours at 4° C. The free and protein bound [^3 H]-TxB2 were separated by absorption onto activated charcoal followed by centrifugation. 1.0 ml of the supernatant was added to an aqueous scintillation fluid, and the radioactivity present was counted in a liquid scintillation counter. The binding of [^3 H]-TxB2 in the absence of added TxB2 was approximately 55%. The minimum concentration of TxB2 to be detected accurately in the plasma was 50 pg.ml. Cross reactivity with other prostaglandins was less than 0.005% except with PGD2 wherein the cross reactivity was 1%.
The plasma samples were initially assayed to give approximation of TxB2 content. The plasma was then appropriately diluted and re-assayed in duplicate to give final values.
The amount of TxB2 generated by collagen was calculated by subtracting mean values obtained for the saline stimulated platelets from the mean values obtained from the collagen stimulated platelets. The amount of TxB2 generated in the presence of each concentration of test compound was expressed as a % of control and dose response curves were constructed to determine the concentration of test compound which produced 50% inhibition.

[2] = test system: Thromboxane Formation (plasma TXB2); experiment: Whole Blood Aggregation and Thromboxane Formation In Vivo: Guinea Pig (plasma TXB2 by RIA); details: oral (dose not given), ex vivo collagen-stimulated citrated whole blood, normalized to platelet count
Description: Whole Blood Aggregation and Thromboxane Formation In Vivo: Guinea Pig
All guinea pigs (albino male Dunkin-Bartley, 300-350 g) were fasted overnight before use in the test. The test compound was administered by oral dosing needle to conscious animals. All test compounds, if not water soluble, were administered formulated in a 50% PEG 400/50% carboxymethylcellulose mixture as solution or suspension. Oral dose volumes were 0.1 ml per 100 g body weight.
Animals were anaesthetized with pentabarbitone sodium (60 mg/kg) given intraperitoneally approximately 10 minutes before the bleed time. Once surgically anaesthetized, the peritoneal cavity was opened, and 4.5 ml blood was drawn into a syringe containing 0.5 ml 3.0% trisodium citrate (9:1 v/v) from the abdominal aorta via a 21/23 gauge butterfly needle. The blood was gently mixed with the citrate in the syringe, and transferred to a screwcap plastic tube. Animals were dosed and bled at one hour intervals.
Aggregation of the citrated guinea pig whole blood was carried out within 1-2 hours of bleeding, using standard whole blood aggregometry and counting technique. Aliquots (0.55 ml) of citrated whole blood were heated to 37° C. and stirred at 1000 RPM in an aggregometer. An initial 50 μl sample of blood was withdrawn for counting, collagen was added, and additional samples were withdrawn at 1, 2, 3 and 4 minutes. Aggregation was monitored by noting the decrease in single platelet count. Buffer (no collagen) control were included.
At the end of the four minute incubation for platelet counting, the remainder of each blood sample was allowed to stir for one additional minute. At 5 minutes, 1.0 μl of 19 mg/ml indomethacin (dissolved in dimethylsulfoxide) was added to each sample, resulting in a final indomethacin concentration of 30 ug/ml. The resulting solutions were mixed (15-30 seconds) and cooled on ice. Samples were centrifuged and 150 ul of plasma was removed. The plasma samples were frozen until radioimmunoassay for TXB2. The radioimmunoassay was conducted as previously described at plasma dilutions of 1:20. Two vehicle administered control aminals were run. Groups of at least four animals per test compound were utilized.
The raw results obtained in the RIA from a 0.1 ml sample of 1:20 diluted plasma were corrected to pg/ml in original plasma sample (×200). The R.I.A. values were then normalized for initial platelet count within the blood sample to 5.0×10^8 ml^-1 (range of platelet count in citrated guinea pig whole blood was varied between the limits […] ml^-1). The test and control results were then compared, and inhibition (%) calculated in the normal way. Statistical analysis is again by Student's t-test.

Row | Structure (SMILES) | IC50 [1] | % INHIBITION (plasma TXB2) [2]
1 | COc1ccc(COCC(=CCCCCC(=O)O)Cn2ccnc2)cc1 [Example 6, 8-(1H-Imidazol-1-yl)-7-[[(4-methoxyphenyl)methoxy]methyl]-6-octenoic acid] | 1.4 µM | –
2 | COc1ccc(COC/C(=C/c2ccc(C(=O)O)cc2)Cn2ccnc2)cc1 [Example 2, 4-[3-(1H-imidazol-1-yl)-2-[[(4-methoxyphenyl)methoxy]methyl]-1E-propenyl]benzoic acid] | 18.2 µM | –
3 | COc1ccc(C=C(COCc2ccc(OC)cc2)Cn2ccnc2)cc1 [Example 7, 1-[3-(4-Methoxyphenyl)-2-[[(4-methoxyphenyl)methoxy]methyl]-2-propenyl]-1H-imidazole] | 17.3 µM | –
4 | CCOC(=O)CCCCCC=C(CCCc1ccc(OC)cc1)Cn1ccnc1 [Example 8, Ethyl 8-[(1H-imidazol-1-yl)methyl]-11-(4-methoxyphenyl)-7-undecenoate] | 1.8 µM | –
5 | CCOC(=O)c1ccc(/C=C(\COCc2ccc(OC)cc2)Cn2ccnc2)cc1 [1 (Z-isomer), ethyl 4-[3-(1H-imidazol-1-yl)-2-[[(4-methoxyphenyl)methoxy]methyl]-1Z-propenyl]benzoate] | 0.022 µM | -45.5%
6 | CCOC(=O)c1ccc(/C=C(/COCc2ccc(OC)cc2)Cn2ccnc2)cc1 [1 (E-isomer), ethyl 4-[3-(1H-imidazol-1-yl)-2-[[(4-methoxyphenyl)methoxy]methyl]-1E-propenyl]benzoate] | 0.89 µM | –
7 | COc1ccc(COCC(=CCCCCCC(=O)O)Cn2ccnc2)cc1 [Example 5, 9-(1H-Imidazol-1-yl)-8-[[(4-methoxyphenyl)methoxy]methyl]-7-nonenoic acid] | 4.6 µM | -4.0%
8 | COc1ccc(COC/C(=C\c2ccc(C(=O)O)cc2)Cn2ccnc2)cc1 [Example 3, 4-[3-(1H-Imidazol-1-yl)-2-[[(4-methoxyphenyl)methoxy]methyl]-1Z-propenyl]benzoic acid] | 0.56 µM | –
9 | CCOC(=O)c1ccc(/C=C(/COCc2ccc(OC)cc2)Cn2ccnc2)cc1OC [11 (E-isomer)] | 21.8 µM | -36.0%
10 | CCOC(=O)c1cccc(/C=C(\COCc2ccc(OC)cc2)Cn2ccnc2)c1 [9 (Z-isomer), ethyl 3-[3-(1H-imidazol-1-yl)-2-[[(4-methoxyphenyl)methoxy]methyl]-1Z-propenyl]benzoate] | 11.5 µM | –
11 | CCOC(=O)CCCCCC=C(COCc1ccc(OC)cc1)Cn1ccnc1 [Example 4, ethyl 9-(1H-imidazol-1-yl)-8-[[(4-methoxyphenyl)methoxy]methyl]-7-nonenoate] | 9.3 µM | –
12 | CCOC(=O)c1ccc(/C=C(\CCCc2ccc(OC)cc2)Cn2ccnc2)cc1 [12 (E-isomer), ethyl 4-[2-[(1H-imidazol-1-yl)-methyl]-5-(4-methoxyphenyl)-1E-pentenyl]benzoate] | 0.15 µM | -92.3%
13 | CCOC(=O)c1cccc(/C=C(/COCc2ccc(OC)cc2)Cn2ccnc2)c1 [9 (E-isomer), ethyl 3-[3-(1H-imidazol-1-yl)-2-[[(4-methoxyphenyl)methoxy)methyl]-1E-propenyl]-benzoate] | 403 µM | –
14 | CCOC(=O)c1ccc(/C=C(\COCc2ccc(F)cc2)Cn2ccnc2)cc1 [13 (Z-isomer), ethyl 4-[2-[[(4-fluorophenyl)methoxy]-methyl]-3-(1H-imidazol-1-yl)-1Z-propenyl]benzoate] | 0.45 µM | -49.1%
15 | CCOC(=O)c1ccc(/C=C(/COCc2ccc(OC)cc2)Cn2ccnc2)cc1Cl [10 (E-isomer)] | 4.78 µM | -18.6%
